These molecules were tested against T1, Mcl-1/Bim interaction, recombinant human Mcl-1 (171-327) (Homo sapiens, UniProt Q07820) (assay: Cell free Mcl-1: Bim Affinity Assay (Mcl-1 HTRF)). Details: TR-FRET, 0.1 nM Mcl-1 (171-327), 0.05 nM biotin-Bim (51-76).
T1 construct: made in house
Assay type: binding
Protocol: Cell free Mcl-1: Bim Affinity Assay (Mcl-1 HTRF)
The inhibition of the Mcl-1/Bim interaction was measured using a time-resolved fluorescence resonance energy transfer (TR-FRET) assay. […] A biotinylated peptide derived from human Bim (residues 51-76) was purchased from CPC Scientific (San Jose, CA). The TR-FRET assay was conducted in a 384-well white OptiPlatem (PerkinElmer, Waltham, MA) in a total volume of 40 μL. […] The reaction plates were further incubated overnight and then were read on an Envision® multimode reader (PerkinElmer). […] The IC50 values of test compounds were determined from duplicate data by analyzing competition curves using a four-parameter sigmoidal model in GraphPad Prism (GraphPad Software, San Diego, CA) or in Genedata Screener® (Genedata, Basel, Switzerland).

T1 sequence (Q07820 171-327): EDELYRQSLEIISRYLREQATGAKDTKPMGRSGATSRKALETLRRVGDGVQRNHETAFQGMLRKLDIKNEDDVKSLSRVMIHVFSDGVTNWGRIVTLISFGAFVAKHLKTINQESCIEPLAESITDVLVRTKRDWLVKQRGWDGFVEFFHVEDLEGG

SMILES | IC50 [nM]
O=C1NS(=O)(=O)CCCCCS(=O)(=O)C2CCC2CN2C[C@@]3(CCCc4cc(Cl)ccc43)COc3ccc1cc32 (mixture of isomers) [Example 196] | 22.2
CC(=O)N1C/C=C/CS(=O)(=O)NC(=O)c2ccc3c(c2)N(C[C@@H]2CC[C@H]2C1)C[C@@]1(CCCc2cc(Cl)ccc21)CO3.CC(=O)N1C/C=C\CS(=O)(=O)NC(=O)c2ccc3c(c2)N(C[C@@H]2CC[C@H]2C1)C[C@@]1(CCCc2cc(Cl)ccc21)CO3 (mixture of isomers) [Example 371, (1S,3′R,6′R,10′E)-8′-acetyl-6-chloro-3,4-dihydro-2H,15′H-spiro[naphthalene-1,22′-[20]oxa[13]thia[1,8,14]triazatetracyclo[14.7.2.0^3,6.0^19,24]pentacosa[10,16,18,24]tetraen]-15′-one 13′,13′-dioxide and (1S,3′R,6′R,10′Z)-8′-acetyl-6-chloro-3,4-dihydro-2H,15′H-spiro[naphthalene-1,22′-[20]oxa[13]thia[1,8,14]triazatetracyclo[14.7.2.0^3,6.0^19,24]pentacosa[10,16,18,24]tetraen]-15′-one 13′,13′-dioxide] | 20.8
CC[C@@H]1CC/C=C/[C@H](OCCO[C@H]2CCCCO2)[C@@H]2CC[C@H]2CN2C[C@@]3(CCCc4cc(Cl)ccc43)COc3ccc(cc32)C(=O)NS1(=O)=O (mixture of isomers) [Example 969] | 2.91
CCC1CCC=CC(OC(C)C(=O)N(C)C)C2CCC2CN2CC3(CCCc4cc(Cl)ccc43)COc3ccc(cc32)C(=O)NS1(=O)=O (mixture of isomers) [Example 985] | 1.46
CCN1CC/C=C\[C@H](O)[C@@H]2CC[C@H]2CN2C[C@@]3(CCCc4cc(Cl)ccc43)COc3ccc(cc32)C(=O)NS1(=O)=O (single isomer, unassigned) [Example 30] | 1.92
CO[C@H]1/C=C/CCNS(=O)(=O)NC(=O)c2ccc3c(c2)N(C[C@@H]2CC[C@H]21)C[C@@]1(CCCc2cc(Cl)ccc21)CO3 (single isomer, unassigned) [Example 46] | 0.367
O=C1NS(=O)(=O)C/C=C/CNC(=O)[C@@H]2CC[C@H]2CN2C[C@@]3(CCCc4cc(Cl)ccc43)COc3ccc1cc32 (single isomer, unassigned) [Example 97, (1S,3′R,6′R,10′E)-6-chloro-3,4-dihydro-2H,7′H,15′H-spiro[naphthalene-1,22′-[20]oxa[13]thia[1,8,14]triazatetracyclo[14.7.2.0^3,6.0^19,24]pentacosa[10,16,18,24]tetraen]-7′,15′-dione 13′,13′-dioxide or (1S,3′R,6′R,10′Z)-6-chloro-3,4-dihydro-2H,7′H,15′H-spiro[naphthalene-1,22′-[20]oxa[13]thia[1,8,14]triazatetracyclo[14.7.2.0^3,6.0^19,24]pentacosa[10,16,18,24]tetraen]-7′,15′-dione 13′,13′-dioxide] | 12.6
O=C1NS(=O)(=O)C2CCCC(CCC(O)C3CCC3CN3CC4(CCCc5cc(Cl)ccc54)COc4ccc1cc43)C2 (single isomer, unassigned) [Example 106] | 16.9
C[C@@H]1CC/C=C/[C@H](O)[C@]2(C)CC[C@H]2CN2C[C@@]3(CCCc4cc(Cl)ccc43)COc3ccc(cc32)C(=O)NS1(=O)=O (single isomer, unassigned) [Example 116] | 0.856
C[C@@H]1CC/C=C/[C@H](O)[C@]2(C)CC[C@H]2CN2C[C@@]3(CCCc4cc(Cl)ccc43)COc3ccc(cc32)C(=O)NS1(=O)=O (single isomer, unassigned) [Example 118] | 34.9
C[C@]12CC[C@H]1CN1C[C@@]3(CCCc4cc(Cl)ccc43)COc3ccc(cc31)C(=O)NS(=O)(=O)CCCCC[C@@H]2O (single isomer, unassigned) [Example 121] | 12.2
C[C@]12CC[C@H]1CN1C[C@@]3(CCCc4cc(Cl)ccc43)COc3ccc(cc31)C(=O)NS(=O)(=O)CCCCC[C@@H]2O (single isomer, unassigned) [Example 122] | 7.17
C[C@]12CC[C@H]1CN1C[C@@]3(CCCc4cc(Cl)ccc43)COc3ccc(cc31)C(=O)NS(=O)(=O)CCCCC[C@@H]2O (single isomer, unassigned) [Example 123] | 4.3
N#C[C@@H]1CC/C=C\[C@H](O)[C@@H]2CC[C@H]2CN2C[C@@]3(CCCc4cc(Cl)ccc43)COc3ccc(cc32)C(=O)NS1(=O)=O (single isomer, unassigned) [Example 153] | 1.22
CC[C@@H]1CC[C@@H](O)/C=C/[C@@H]2CC[C@H]2CN2C[C@@]3(CCCc4cc(Cl)ccc43)COc3ccc(cc32)C(=O)NS1(=O)=O (single isomer, unassigned) [Example 198] | 3.24
O=C1NS(=O)(=O)[C@H]2C[C@@H](O)C[C@@H]2C/C=C/[C@H](O)[C@@H]2CC[C@H]2CN2C[C@@]3(CCCc4cc(Cl)ccc43)COc3ccc1cc32 (single isomer, unassigned) [Example 336] | 1.51
CC(=O)N1C[C@@H]2C/C=C/[C@H](O)[C@@H]3CC[C@H]3CN3C[C@@]4(CCCc5cc(Cl)ccc54)COc4ccc(cc43)C(=O)NS(=O)(=O)[C@H]2C1 (single isomer, unassigned) [Example 339] | 2.71
CC[C@@H]1CCCOC[C@@H]2CC[C@H]2CN2C[C@@]3(CCCc4cc(Cl)ccc43)COc3ccc(cc32)C(=O)NS1(=O)=O (single isomer, unassigned) [Example 368] | 3.74
CC[C@H]1CCCOC[C@@H]2CC[C@H]2CN2C[C@@]3(CCCc4cc(Cl)ccc43)COc3ccc(cc32)C(=O)NS1(=O)=O (single isomer, unassigned) [Example 369] | 3.98
O=C1NS(=O)(=O)[C@H](C(F)(F)F)CCCC[C@H](O)[C@@H]2CC[C@H]2CN2C[C@@]3(CCCc4cc(Cl)ccc43)COc3ccc1cc32 (single isomer, unassigned) [Example 432] | 0.996
O=C1NS(=O)(=O)[C@@H](C(F)(F)F)CCCC[C@H](O)[C@@H]2CC[C@H]2CN2C[C@@]3(CCCc4cc(Cl)ccc43)COc3ccc1cc32 (single isomer, unassigned) [Example 433] | 3.23
CCC[C@@H]1CC/C=C/[C@H](O)[C@@H]2CC[C@H]2CN2C[C@@]3(CCCc4cc(Cl)ccc43)COc3ccc(cc32)C(=O)NS1(=O)=O (single isomer, unassigned) [Example 434] | 0.273
CN(C)C(=O)[C@@H]1CC/C=C/[C@H](O)[C@@H]2CC[C@H]2CN2C[C@@]3(CCCc4cc(Cl)ccc43)COc3ccc(cc32)C(=O)NS1(=O)=O (single isomer, unassigned) [Example 436] | 0.243
CN(C)C(=O)[C@H]1CC/C=C/[C@H](O)[C@@H]2CC[C@H]2CN2C[C@@]3(CCCc4cc(Cl)ccc43)COc3ccc(cc32)C(=O)NS1(=O)=O (single isomer, unassigned) [Example 437] | 3.77
O=C1NS(=O)(=O)C(C(F)F)CCC=CC(O)C2CCC2CN2CC3(CCCc4cc(Cl)ccc43)COc3ccc1cc32 (single isomer, unassigned) [Example 438] | 0.731
CCOC[C@@H]1CC/C=C/[C@H](O)[C@@H]2CC[C@H]2CN2C[C@@]3(CCCc4cc(Cl)ccc43)COc3ccc(cc32)C(=O)NS1(=O)=O (single isomer, unassigned) [Example 439] | 0.321

Same assay, conditions: cell free Mcl-1:Bim TR-FRET, recombinant human Mcl-1 (171-327)

SMILES | IC50 [nM]
O=C1NS(=O)(=O)C[C@@H](CO)C/C=C/C[C@H](O)[C@@H]2CC[C@H]2CN2C[C@@]3(CCCc4cc(Cl)ccc43)COc3ccc1cc32.O=C1NS(=O)(=O)C[C@H](CO)C/C=C/C[C@H](O)[C@@H]2CC[C@H]2CN2C[C@@]3(CCCc4cc(Cl)ccc43)COc3ccc1cc32 (mixture of isomers) [Example 710] | 25.6
O=C1NS(=O)(=O)CCC=CC(O)C2CCC2CN2CC3(CCCc4cc(Cl)ccc43)COc3ccc1cc32 (mixture of isomers) [Example 776, (1S,3′R,6′R,7′S,8′E)-6-chloro-7′-hydroxy-3,4-dihydro-2H,14′H-spiro[naphthalene-1,21′-[19]oxa[12]thia[1,13]diazatetracyclo [13.7.2.0^3,6.0^18,23]tetracosa[8,15,17,23]tetraen]-14′-one 12′,12′-dioxide and (1S,3′R,6′R,7′S,8′Z)-6-chloro-7′-hydroxy-3,4-dihydro-2H,14′H-spiro[naphthalene-1,21′-[19]oxa[12]thia[1,13]diazatetracyclo[13.7.2.0^3,6.0^18,23]tetracosa[8,15,17,23]tetraen]-14′-one 12′,12′-dioxide] | 2.71
O=C1NS(=O)(=O)C[C@@H]2C[C@@H]2CC[C@H](O)[C@@H]2CC[C@H]2CN2C[C@@]3(CCCc4cc(Cl)ccc43)COc3ccc1cc32.O=C1NS(=O)(=O)C[C@H]2C[C@H]2CC[C@H](O)[C@@H]2CC[C@H]2CN2C[C@@]3(CCCc4cc(Cl)ccc43)COc3ccc1cc32 (mixture of isomers) [Example 787] | 21.4
O=C1NS(=O)(=O)CCCCCC(=NO)C2CCC2CN2CC3(CCCc4cc(Cl)ccc43)COc3ccc1cc32 (mixture of isomers) [Example 932, (1S,3′R,6′R,7′Z)-6-chloro-3,4-dihydro-2H,7′H,15′H-spiro[naphthalene-1,22′-[20]oxa[13]thia[1,14]diazatetracyclo[14.7.2.0^3,6.0^19,24]pentacosa [16,18,24]triene]-7,15′-dione 7-OXIME 13′,13′-dioxide and (1S,3′R,6′R,7′E)-6-chloro-3,4-dihydro-2H,7′H,15′H-spiro[naphthalene-1,22′-[20]oxa[13]thia[1,14]diazatetracyclo[14.7.2.0^3,6.0^19,24]pentacosa [16,18,24]triene]-7′,15′-dione 7-OXIME 13′,13′-dioxide] | 3.69

— patent publication US12091425B2 (AMGEN INC., priority 2016, dated 2024)
